Several values for one entry are separate records, joined by “and”; a condition that tells them apart may be missing. Identical values can stand only once.
Tested on: MDA-MB-231 complex spheroid viability
Assay: Anticancer human tumor MDA-MB-231/ATCC cell line growth inhibition;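 further: drug exposure lasted 7 days starting on day 3 of spheroid growth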
Conditions: for viability, T/C: stronger effect = lower value; for IC50: curve of first compound
Source text: Multicellular complex tumor spheroid response to LSD1 Inhibitor Iadademstat in combination with a variety of drugs and investigational agents in selected tumor cell lines
The current study was undertaken to assess response to LSD1 inhibitors in combination with standard-of-care drugs and investigational agents in solid tumor complex spheroid models as well as in the K-562 leukemia. Complex spheroids include a stromal component modeled by human endothelial cells (HUVEC) and fibroblasts modeled by human mesenchymal stem cells (MSCs). The concentration ranges selected for each drug and investigational agent were based upon clinically achievable concentrations if the clinical Cmax of the agent was known.
Compounds. The drugs and investigational agents used in this study are listed on Table 1. All of the agents used, including staurosporine (NSC755774) and gemcitabine (NSC613327), were obtained from the Developmental Therapeutics Program, NCI. FDA-approved anticancer drugs are available from the NCI at http://dtp.nci.nih.gov/branches/dscb/oncology_drugset_explanation.html. Drugs and investigational agents were >95% pure by proton nuclear magnetic resonance (NMR) and liquid chromatography/mass spectrometry (LC/MS). Stock solutions were prepared at 400x in DMSO, stored at -70 degrees C, and diluted in fresh medium prior to their use. The final concentration of DMSO in cell culture wells never exceeded 0.25% (v/v). The FDA-approved anticancer drug set is available from the Developmental Therapeutics Program at https://dtp.cancer.gov/organization/dscb/obtaining/available_plates.htm. All drugs and investigational agents were tested over a range starting from a high concentration at or near the clinical Cmax and decreasing in half-log increments. If the clinical Cmax for an agent had not been determined, the highest concentration tested was 10 microM.
Cell Lines. The patient-derived cancer cell (PDC) lines: 292921-168-R-J2-PDC, K24384-001-R-PDC, and 521955-158-R2-J5-PDC pancreatic carcinomas, 556581-035-R-J1 ovarian carcinoma, 324938-238-R-J1-PDC, 855422-203-R-J1-PDC and 883617-216-R-J1-PDC urothelial bladder carcinomas, 743489-274-T-PDC renal cell carcinoma, 138582-R-J1 Merkel cell tumor, K60290-347-R-J1 and K57222-313-R-J1-PDC glioblastomas, 653999-131-R-J2-PDC, LG0703-F948-PDC, and 349418-098-R-PDC non-small cell lung carcinomas, 885512-296-R-J2-PDC, 171881-019-R-J1-PDC breast carcinomas and 186277-243-T-J2-PDC and 233499-124-R-J2-PDC colon carcinomas were obtained from the NCI Patient-Derived Models Repository (PDMR, https://pdmr.cancer.gov). The established cell lines NCI/ADR-RES (RRID:CVCL_14520 and OVCAR-5 (RRID:CVCL_1628) ovarian carcinomas, 786-O (RRID:CVCL_1051) and A498 (RRID:CVCL_A498) renal cell carcinoma, NCI-H211 (ATCC, cat. CRL-5824; RRID:CVCL_1529), NCI-H196 (ATCC, cat. CRL-5823, RRID:CVCL_1509), SW 1271 (ATCC, cat. CRL-2177, RRID:CVCL_1716) and NCI-H1876 (ATCC, cat. CRL-5902, RRID:CVCL_1503) small cell lung carcinomas, MDA-MB-231 (RRID:CVCL_0062) and MDA-MB-468 (RRID:CVCL_0419)breast carcinomas (10-12). Pooled donor human umbilical vein endothelial cells (HUVEC, Lonza, cat. CC-2519) and human mesenchymal stem cells (hMSC, Lonza, cat. PT-2501) were purchased from Lonza (Walkersville, MD).
Cell Culture. All cells were maintained in an incubator at 37 degrees C and 5% CO2 with 95% humidity. The PDC lines were cultured according to standard operating procedures established by the NCI PDMR (https://pdmr.cancer.gov). Briefly all PDCs were thawed and cultured in Matrigel-coated flasks prepared with a working solution of 1X Ham's F-12 nutrient mix, without supplementation (Invitrogen, Waltham, MA, cat. 11765054), 100 U/mL penicillin-streptomycin (Invitrogen, cat. 15140122), and 2.5% Matrigel (Corning Inc., Corning, NY, cat. 354248) for the first three passages. […]

[1] = second compound 0.1 µM, first compound 0.00316 µM
[2] = second compound 0.1 µM, first compound 0.01 µM
[3] = second compound 0.1 µM, first compound 0.0316 µM
[4] = second compound 0.1 µM, first compound 0.1 µM
[5] = second compound 0.1 µM, first compound 0.316 µM
[6] = second compound 0.1 µM, first compound 1 µM
[7] = second compound 0.316 µM, first compound 0.00316 µM
[8] = second compound 0.316 µM, first compound 0.01 µM
[9] = second compound 0.316 µM, first compound 0.0316 µM
[10] = second compound 0.316 µM, first compound 0.1 µM
[11] = second compound 0.316 µM, first compound 0.316 µM
[12] = second compound 0.316 µM, first compound 1 µM
[13] = second compound 1 µM, first compound 0.00316 µM
[14] = second compound 1 µM, first compound 0.01 µM
[15] = second compound 1 µM, first compound 0.0316 µM
[16] = second compound 1 µM, first compound 0.1 µM
[17] = second compound 1 µM, first compound 0.316 µM
[18] = second compound 1 µM, first compound 1 µM
[19] = second compound 3.16 µM, first compound 0.00316 µM
[20] = second compound 3.16 µM, first compound 0.01 µM
[21] = second compound 3.16 µM, first compound 0.0316 µM
[22] = second compound 3.16 µM, first compound 0.1 µM
[23] = second compound 3.16 µM, first compound 0.316 µM
[24] = second compound 3.16 µM, first compound 1 µM
[25] = second compound 10 µM, first compound 0.00316 µM
[26] = second compound 10 µM, first compound 0.01 µM
[27] = second compound 10 µM, first compound 0.0316 µM
[28] = second compound 10 µM, first compound 0.1 µM
[29] = second compound 10 µM, first compound 0.316 µM
[30] = second compound 10 µM, first compound 1 µM

SMILES	IC50 (second compound 0.1 µM) [nM]	IC50 (second compound 0.316 µM) [nM]	IC50 (second compound 1 µM) [nM]	IC50 (second compound 3.16 µM) [nM]	IC50 (second compound 10 µM) [nM]	viability, T/C [1] [%]	viability, T/C [2] [%]	viability, T/C [3] [%]	viability, T/C [4] [%]	viability, T/C [5] [%]	viability, T/C [6] [%]	viability, T/C [7] [%]	viability, T/C [8] [%]	viability, T/C [9] [%]	viability, T/C [10] [%]	viability, T/C [11] [%]	viability, T/C [12] [%]	viability, T/C [13] [%]	viability, T/C [14] [%]	viability, T/C [15] [%]	other results
CCN(c1cc(-c2ccc(CN3CCOCC3)cc2)cc(C(=O)NCc2c(C)cc(C)[nH]c2=O)c1C)C1CCOCC1																					viability, T/C (compound 0.00949 µM): 90.6% and 108%; viability, T/C (compound 0.03 µM): 93.6% and 88.1%; viability, T/C (compound 0.0949 µM): 82.4% and 61.5%; viability, T/C (compound 0.3 µM): 74.9% and 42.3%; viability, T/C (compound 0.949 µM): 66.3% and 25.8%; viability, T/C (compound 3 µM): 57.7% and 15%
CC1COCCN1c1cc(-c2ccnn2C)c2ccnc(-c3ccn[nH]3)c2n1 (stereo unspecified) + NC1CC1c1ccc(-c2cccc(O)c2)cc1	< 3.16	< 3.16	< 3.16	< 3.16	< 3.16	38.1	32	20.5	16.4	15.8	21.4	32.1	28.7	20.7	16.6	15.8	22.5	33.5	30.8	20.9	viability, T/C [16]: 15.3%; viability, T/C [17]: 14.3%; viability, T/C [18]: 24%; viability, T/C [19]: 33.4%; viability, T/C [20]: 27.9%; viability, T/C [21]: 19.7%; viability, T/C [22]: 16.9%; viability, T/C [23]: 15.2%; viability, T/C [24]: 22%; viability, T/C [25]: 25.7%; viability, T/C [26]: 20.7%; viability, T/C [27]: 18.1%; viability, T/C [28]: 16.2%; viability, T/C [29]: 15%; viability, T/C [30]: 20.5%
COc1cc(Nc2ncc3c(n2)-c2ccc(Cl)cc2C(c2c(F)cccc2OC)=NC3)ccc1C(=O)O + NC1CCC(NC2CC2c2ccccc2)CC1	252	179	296	90.1	< 3.16	85	66.4	56	58.7	50	44.3	83.1	65.5	56.2	54.9	50.8	42.7	80.4	64.6	55.6	viability, T/C [16]: 56.2%; viability, T/C [17]: 51.5%; viability, T/C [18]: 45.6%; viability, T/C [19]: 68.4%; viability, T/C [20]: 54%; viability, T/C [21]: 51.2%; viability, T/C [22]: 54.5%; viability, T/C [23]: 48.5%; viability, T/C [24]: 38.2%; viability, T/C [25]: 49.4%; viability, T/C [26]: 42.4%; viability, T/C [27]: 40.7%; viability, T/C [28]: 38.6%; viability, T/C [29]: 41.8%; viability, T/C [30]: 37.2%
Nc1ncn(C2CC(O)C(CO)O2)c(=O)n1 (stereo unspecified) + NC1CC1c1ccc(-c2cccc(O)c2)cc1	> 1000	560	183	251	< 3.16	74.5	75.8	76.2	66.8	55	56	70.4	63.5	61.4	51.8	50.9	49.6	60.5	58.4	57.3	viability, T/C [16]: 50.4%; viability, T/C [17]: 47.7%; viability, T/C [18]: 45%; viability, T/C [19]: 70.2%; viability, T/C [20]: 63.4%; viability, T/C [21]: 60.6%; viability, T/C [22]: 53.3%; viability, T/C [23]: 49.6%; viability, T/C [24]: 43.7%; viability, T/C [25]: 49.7%; viability, T/C [26]: 45.3%; viability, T/C [27]: 43.9%; viability, T/C [28]: 41.5%; viability, T/C [29]: 40.3%; viability, T/C [30]: 37.1%
